Converted amounts (≈) assume the structure as drawn. The source made the active and inactive calls. No cut-off for these calls is given here.
Experiments:
Candida tropicalis = assay: Antifungal activity against Candida tropicalis ATCC 1369 assessed as reduction in fungal growth by CLSI protocol based broth microdilution method; type: functional
Cryptococcus neoformans = assay: Antifungal activity against Cryptococcus neoformans ATCC 32045 assessed as reduction in fungal growth by CLSI protocol based broth microdilution method; type: functional
Aspergillus fumigatus = assay: Antifungal activity against Aspergillus fumigatus AS 3.3913 assessed as reduction in fungal growth by CLSI protocol based broth microdilution method; type: functional
Candida albicans [1] = assay: Antifungal activity against Candida albicans ATCC 10231 assessed as reduction in fungal growth by CLSI protocol based broth microdilution method; type: functional
Candida albicans [2] = assay: Fungistatic activity against Candida albicans ATCC 10231 assessed as reduction in fungal growth at 2 to 4 times MIC incubated for 36 hrs by Time kill assay; type: functional, organism-based; conditions: DDE = dose-dependent effect
Candida albicans [3] = assay: Fungistatic activity against Candida albicans ATCC 10231 assessed as reduction in fungal growth at 4 times MIC incubated for 12 hrs by Time kill assay; type: functional, organism-based
[4] = Metabolic stability in mouse plasma assessed as parent compound remaining at 2 to 8 times; type: ADME, cell-free
Candida albicans [5] = assay: Antibiofilm activity against Candida albicans ATCC 10231 assessed as inhibition of biofilm viability by XTT reduction assay; type: functional, organism-based
[6] = Cytotoxicity against human HUVEC cells assessed as reduction in cell viability by CCK-8 assay; type: toxicity, cell-based
[7] = Selectivity index, ration of CC50 for cytotoxicity against human HUVEC cells to MIC for antifungal activity against Candida albicans ATCC 10231; type: toxicity, cell-based; conditions: read-out: Selectivity Index
Candida albicans [8] = assay: Antifungal activity against Candida albicans ATCC 10231 assessed as resistance development by measuring increase in MIC at 0.5 ug/ml after 20 passages by CLSI protocol based broth microdilution method; type: functional; conditions: dose 0.5 µg/ml
Cell membrane = assay: Induction of cell membrane damage in Candida albicans ATCC 10231 at 2 to 4 times MIC by propidium iodide staining based fluorescence assay

For Cc1ccc(Nc2nc(-c3ccccc3)nc3ccccc23)cc1.Cl, the MIC (Candida tropicalis) was > 512 µg/mL, the MIC (Cryptococcus neoformans) was > 512 µg/mL and the MIC (Aspergillus fumigatus) was > 512 µg/mL. The MIC (Candida albicans [1]) was > 512 µg/mL.
With CCN(c1ccc(C)cc1)c1cc(-c2ccc(C)cc2)nc2ccccc12 the MIC (Candida tropicalis) was > 512 µg/mL, the MIC (Cryptococcus neoformans) was 128 µg/mL (≈ 363 µM) and the MIC (Aspergillus fumigatus) was 512 µg/mL (≈ 1450 µM). For the same molecule, the MIC (Candida albicans [1]) was > 512 µg/mL.
With Cc1ccc(Nc2cc(-c3ccc(C)cc3)nc3ccccc23)cc1.Cl the MIC (Candida tropicalis) was 16 µg/mL, the MIC (Cryptococcus neoformans) was 8 µg/mL and the MIC (Aspergillus fumigatus) was 4 µg/mL. For the same molecule, the MIC (Candida albicans [1]) was 8 µg/mL, the Activity (Candida albicans [2]) was “Dde” and the Activity (Candida albicans [3]) was “Active”. For the same molecule, the Stability [4] was 80%, the Activity (Candida albicans [5]) was “Active” and the CC50 [6] was 36 µM. It also gave a selectivity ratio [7] of 1.63.
Cc1ccc(Nc2cc(C3CCCC3)nc3ccccc23)cc1.Cl showed an MIC (Candida tropicalis) of 32 µg/mL, an MIC (Cryptococcus neoformans) of 64 µg/mL and an MIC (Aspergillus fumigatus) of 16 µg/mL. It also gave an MIC (Candida albicans [1]) of 64 µg/mL.
In the case of Cc1ccc(Nc2cc(-c3cccc(C(F)(F)F)c3)nc3ccccc23)cc1.Cl, the MIC (Candida tropicalis) was 512 µg/mL, the MIC (Cryptococcus neoformans) was 512 µg/mL and the MIC (Aspergillus fumigatus) was > 512 µg/mL. The MIC (Candida albicans [1]) was > 512 µg/mL.
With Cc1ccc(Nc2cc(-c3ccccc3F)nc3ccccc23)cc1.Cl the MIC (Candida tropicalis) was > 512 µg/mL, the MIC (Cryptococcus neoformans) was > 512 µg/mL and the MIC (Aspergillus fumigatus) was > 512 µg/mL. The MIC (Candida albicans [1]) was > 512 µg/mL.
With Cc1ccc(Nc2cc(-c3ccc(C(F)(F)F)cc3)nc3ccccc23)cc1.Cl the MIC (Candida tropicalis) was > 512 µg/mL, the MIC (Cryptococcus neoformans) was 16 µg/mL and the MIC (Aspergillus fumigatus) was > 512 µg/mL. For the same molecule, the MIC (Candida albicans [1]) was > 512 µg/mL.
Work on COc1cccc(-c2cc(Nc3ccc(C)cc3)c3ccccc3n2)c1.Cl yielded an MIC (Candida tropicalis) of 16 µg/mL, an MIC (Cryptococcus neoformans) of 16 µg/mL and an MIC (Aspergillus fumigatus) of 32 µg/mL. The MIC (Candida albicans [1]) was 8 µg/mL.
Cc1ccc(Nc2cc(-c3ccc4ccccc4c3)nc3ccccc23)cc1.Cl showed an MIC (Candida tropicalis) of 256 µg/mL, an MIC (Cryptococcus neoformans) of 4 µg/mL and an MIC (Aspergillus fumigatus) of 64 µg/mL. For the same molecule, the MIC (Candida albicans [1]) was 128 µg/mL.
Molecule Cc1ccc(Nc2cc(-c3cccc(C)c3)nc3ccccc23)cc1.Cl has an MIC (Candida tropicalis) of 32 µg/mL, an MIC (Cryptococcus neoformans) of 128 µg/mL and an MIC (Aspergillus fumigatus) of 128 µg/mL. For the same molecule, the MIC (Candida albicans [1]) was 8 µg/mL.
For COc1ccc(-c2cc(Nc3ccc(C)cc3)c3ccccc3n2)cc1.Cl, the MIC (Candida tropicalis) was 16 µg/mL, the MIC (Cryptococcus neoformans) was 8 µg/mL and the MIC (Aspergillus fumigatus) was 8 µg/mL. The MIC (Candida albicans [1]) was 16 µg/mL.
With Cc1ccc(Nc2cc(-c3ccco3)nc3ccccc23)cc1.Cl the MIC (Candida tropicalis) was 16 µg/mL, the MIC (Cryptococcus neoformans) was 32 µg/mL and the MIC (Aspergillus fumigatus) was 128 µg/mL. It also gave an MIC (Candida albicans [1]) of 32 µg/mL.
In the case of Cc1ccc(Nc2cc(-c3cccc(Br)c3)nc3ccccc23)cc1.Cl, the MIC (Candida tropicalis) was > 512 µg/mL, the MIC (Cryptococcus neoformans) was > 512 µg/mL and the MIC (Aspergillus fumigatus) was > 512 µg/mL. The MIC (Candida albicans [1]) was > 512 µg/mL.
Cc1ccc(Nc2cc(-c3ccccc3)nc3ccccc23)cc1.Cl gave an MIC (Candida tropicalis) of 32 µg/mL, an MIC (Cryptococcus neoformans) of 32 µg/mL and an MIC (Aspergillus fumigatus) of 64 µg/mL. It also gave an MIC (Candida albicans [1]) of 32 µg/mL.
Work on Cc1ccc(Nc2cc(-c3ccccc3Cl)nc3ccccc23)cc1.Cl yielded an MIC (Candida tropicalis) of 64 µg/mL, an MIC (Cryptococcus neoformans) of 8 µg/mL and an MIC (Aspergillus fumigatus) of 512 µg/mL. For the same molecule, the MIC (Candida albicans [1]) was > 512 µg/mL.
For Cc1ccc(Nc2cc(-c3ccc(Cl)cc3)nc3ccccc23)cc1.Cl, the MIC (Candida tropicalis) was 128 µg/mL, the MIC (Cryptococcus neoformans) was 32 µg/mL and the MIC (Aspergillus fumigatus) was > 512 µg/mL. It also gave an MIC (Candida albicans [1]) of 64 µg/mL.
For COc1ccccc1-c1cc(Nc2ccc(C)cc2)c2ccccc2n1.Cl, the MIC (Candida tropicalis) was 32 µg/mL, the MIC (Cryptococcus neoformans) was 32 µg/mL and the MIC (Aspergillus fumigatus) was 8 µg/mL. It also gave an MIC (Candida albicans [1]) of 32 µg/mL.
In the case of C[C@@H]1[C@H](O)[C@@H](C)/C=C/C=C/C=C/C=C/C=C/C=C/C=C/[C@H](O[C@@H]2O[C@H](C)[C@@H](O)[C@H](N)[C@@H]2O)C[C@@H]2O[C@](O)(C[C@@H](O)C[C@@H](O)[C@H](O)CC[C@@H](O)C[C@@H](O)CC(=O)O[C@H]1C)C[C@H](O)[C@H]2C(=O)O [AMPHOTERICIN B], the MIC (Candida tropicalis) was 4 µg/mL (≈ 4.33 µM), the MIC (Cryptococcus neoformans) was 1 µg/mL (≈ 1.08 µM) and the MIC (Aspergillus fumigatus) was > 512 µg/mL. For the same molecule, the MIC (Candida albicans [1]) was 1 µg/mL (≈ 1.08 µM), the Activity (Candida albicans [2]) was “Dde” and the MIC (Candida albicans [8]) was 128 µg/mL (≈ 139 µM). The Activity (Cell membrane) was “Active”, the CC50 [6] was 4.92 µM and the selectivity ratio [7] was 4.55.
In the case of Cc1ccc(Nc2cc(C)nc3ccccc23)cc1.Cl, the MIC (Candida tropicalis) was 256 µg/mL, the MIC (Cryptococcus neoformans) was 256 µg/mL and the MIC (Aspergillus fumigatus) was 128 µg/mL. It also gave an MIC (Candida albicans [1]) of 256 µg/mL.
Cc1ccc(Nc2cc(-c3ccc(C(C)(C)C)cc3)nc3ccccc23)cc1.Cl gave an MIC (Candida tropicalis) of 32 µg/mL, an MIC (Cryptococcus neoformans) of 4 µg/mL and an MIC (Aspergillus fumigatus) of 2 µg/mL. The MIC (Candida albicans [1]) was 32 µg/mL.
Work on Cc1ccc(Nc2cc(-c3ccccc3Br)nc3ccccc23)cc1.Cl yielded an MIC (Candida tropicalis) of 128 µg/mL, an MIC (Cryptococcus neoformans) of 8 µg/mL and an MIC (Aspergillus fumigatus) of 64 µg/mL. The MIC (Candida albicans [1]) was > 512 µg/mL.
With Cc1ccc(Nc2cc(-c3ccc(F)cc3)nc3ccccc23)cc1.Cl the MIC (Candida tropicalis) was > 512 µg/mL, the MIC (Cryptococcus neoformans) was > 512 µg/mL and the MIC (Aspergillus fumigatus) was > 512 µg/mL. The MIC (Candida albicans [1]) was > 512 µg/mL.
With Cc1ccc(Nc2cc(C3CCCCC3)nc3ccccc23)cc1.Cl the MIC (Candida tropicalis) was 16 µg/mL, the MIC (Cryptococcus neoformans) was 32 µg/mL and the MIC (Aspergillus fumigatus) was > 512 µg/mL. The MIC (Candida albicans [1]) was 16 µg/mL.
With Cc1ccc(Nc2cc(-c3cccnc3)nc3ccccc23)cc1.Cl the MIC (Candida tropicalis) was 256 µg/mL, the MIC (Cryptococcus neoformans) was > 512 µg/mL and the MIC (Aspergillus fumigatus) was > 512 µg/mL. For the same molecule, the MIC (Candida albicans [1]) was 512 µg/mL.
For Cc1ccc(Nc2cc(-c3cccc(F)c3)nc3ccccc23)cc1.Cl, the MIC (Candida tropicalis) was > 512 µg/mL, the MIC (Cryptococcus neoformans) was > 512 µg/mL and the MIC (Aspergillus fumigatus) was > 512 µg/mL. The MIC (Candida albicans [1]) was > 512 µg/mL.
Cc1ccc(Nc2cc(-c3cccs3)nc3ccccc23)cc1.Cl showed an MIC (Candida tropicalis) of 16 µg/mL, an MIC (Cryptococcus neoformans) of 4 µg/mL and an MIC (Aspergillus fumigatus) of 16 µg/mL. For the same molecule, the MIC (Candida albicans [1]) was 8 µg/mL.
For Cc1ccc(Nc2cc(-c3cccc(Cl)c3)nc3ccccc23)cc1.Cl, the MIC (Candida tropicalis) was > 512 µg/mL, the MIC (Cryptococcus neoformans) was > 512 µg/mL and the MIC (Aspergillus fumigatus) was > 512 µg/mL. For the same molecule, the MIC (Candida albicans [1]) was > 512 µg/mL.
With Cc1ccc(Nc2cc(-c3ccc(Br)cc3)nc3ccccc23)cc1.Cl the MIC (Candida tropicalis) was > 512 µg/mL, the MIC (Cryptococcus neoformans) was 512 µg/mL and the MIC (Aspergillus fumigatus) was > 512 µg/mL. The MIC (Candida albicans [1]) was > 512 µg/mL.
Molecule Cc1ccc(Nc2cc(-c3ccccc3C(F)(F)F)nc3ccccc23)cc1.Cl has an MIC (Candida tropicalis) of 256 µg/mL, an MIC (Cryptococcus neoformans) of 4 µg/mL and an MIC (Aspergillus fumigatus) of 128 µg/mL. For the same molecule, the MIC (Candida albicans [1]) was > 512 µg/mL.
Work on Cc1ccc(Nc2ccnc3ccccc23)cc1.Cl yielded an MIC (Candida tropicalis) of 512 µg/mL, an MIC (Cryptococcus neoformans) of 256 µg/mL and an MIC (Aspergillus fumigatus) of 128 µg/mL. The MIC (Candida albicans [1]) was 256 µg/mL.
Molecule Cc1ccc(Nc2cc(C3CCC3)nc3ccccc23)cc1.Cl has an MIC (Candida tropicalis) of 64 µg/mL, an MIC (Cryptococcus neoformans) of 64 µg/mL and an MIC (Aspergillus fumigatus) of 64 µg/mL. The MIC (Candida albicans [1]) was 128 µg/mL.
CCN(c1ccc(C)cc1)c1cc(-c2ccccc2OC)nc2ccccc12 gave an MIC (Candida tropicalis) of 256 µg/mL (≈ 695 µM), an MIC (Cryptococcus neoformans) of 16 µg/mL (≈ 43.4 µM) and an MIC (Aspergillus fumigatus) of 256 µg/mL (≈ 695 µM). The MIC (Candida albicans [1]) was > 512 µg/mL.
Work on Cc1ccc(Nc2cc(-c3ccccc3C)nc3ccccc23)cc1.Cl yielded an MIC (Candida tropicalis) of 32 µg/mL, an MIC (Cryptococcus neoformans) of 32 µg/mL and an MIC (Aspergillus fumigatus) of 32 µg/mL. The MIC (Candida albicans [1]) was 16 µg/mL.
With Cc1ccc(Nc2cc(C3CC3)nc3ccccc23)cc1.Cl the MIC (Candida tropicalis) was 128 µg/mL, the MIC (Cryptococcus neoformans) was 32 µg/mL and the MIC (Aspergillus fumigatus) was 512 µg/mL. For the same molecule, the MIC (Candida albicans [1]) was 128 µg/mL.
CCN(c1ccc(C)cc1)c1cc(-c2cccc(C)c2)nc2ccccc12 showed an MIC (Candida tropicalis) of 512 µg/mL (≈ 1450 µM), an MIC (Cryptococcus neoformans) of 64 µg/mL (≈ 182 µM) and an MIC (Aspergillus fumigatus) of 512 µg/mL (≈ 1450 µM). It also gave an MIC (Candida albicans [1]) of 512 µg/mL (≈ 1450 µM).

— ChEMBL document CHEMBL5113473, “Synthesis and biological evaluation of new 2‑substituted‑4‑amino-quinolines and -quinazoline as potential antifungal agents” (Bioorg Med Chem Lett, 2022)
